Data reported in US20060100431A1, “Biologically active compounds” (Amura Therapeutics Limited, priority 2002, published 2006).

target: Wild-type cruzipain (Trypanosoma cruzi, UniProt P25779); test: Trypanosoma cruzi cruzipain peptidase activity assay (Ki); format: biochemical; conditions: read-out: Ki, inhibitors of cruzain and cruzipains
Method: Unless otherwise stated, all general chemicals and biochemicals were purchased from either the Sigma Chemical Company, Poole, Dorset, U.K or from Fisher Scientific UK, Loughborough, Leicestershire, U.K. Absorbance assays were carried out in flat-bottomed 96-well plates (Spectra; Greiner Bio-One Ltd., Stonehouse, Gloucestershire, U.K.) using a SpectraMax PLUS384 plate reader (Molecular Devices, Crawley, U.K.). Fluorescence high throughput assays were carried out in either 384-well microtitre plates (Corning Costar 3705 plates, Fisher Scientific) or 96-well ‘U’ bottomed Microfluor W1 microtitre plates (Thermo Labsystems, Ashford, Middlesex, U.K.). Fluorescence assays were monitored using a SpectraMax Gemini fluorescence plate reader (Molecular Devices). For substrates employing either a 7-amino-4-methylcoumarin (AMC) or a 7-amino-4-trifluoromethylcoumarin (AFC) fluorophore, assays were monitored at an excitation wavelength of 365 nm and an emission wavelength of 450 nm and the fluorescence plate reader calibrated with AMC. For substrates employing a 3-amino-benzoyl (Abz) fluorophore, assays were monitored at an excitation wavelength of 310 nm and an emission wavelength of 445 nm; the fluorescence plate reader calibrated with 3-amino-benzamide (Fluka). Unless otherwise indicated, all the peptidase substrates were purchased from Bachem UK, St Helens, Merseyside, UK. Substrates utilizing fluorescence resonance energy transfer methodology (i.e. FRET-based substrates) were synthesized at Incenta Limited using published methods (Atherton & Sheppard, Solid Phase Peptide Synthesis, IRL Press, Oxford, U.K, 1989) and employed Abz (2-aminobenzoyl) as the fluorescence donor and 3-nitro-tyrosine [Tyr(NO2)] as the fluorescence quencher (Meldal, M. and Breddam, K., Anal. Biochem, 195, 141-147, 1991). Hydroxyethylpiperazine ethanesulfonate (HEPES), tris-hydroxylmethyl aminomethane (tris) base, bis-tris-propane and all the biological detergents (e.g. CHAPS, zwittergents, etc.) were purchased from CN Biosciences UK, Beeston, Nottinghamshire, U.K. Glycerol was purchased from Amersham Pharmacia Biotech, Little Chalfont, Buckinghamshire, U.K. Stock solutions of substrate or inhibitor were made up to 10 mM in 100% dimethylsulfoxide (DMSO) (Rathburns, Glasgow, U.K.) and diluted as appropriately required. In all cases the DMSO concentration in the assays was maintained at less than 1% (vol./vol.).
Assay protocols were based on literature precedent (Table 4; Barrett, A. J., Rawlings, N. D. and Woessner, J. F., 1998, Handbook of Proteolytic Enzymes, Academic Press, London and references therein) and modified as required to suit local assay protocols. Enzyme was added as required to initiate the reaction and the activity, as judged by the change in fluorescence upon conversion of substrate to product, was monitored over time. All assays were carried out at 25±1° C.
Wild-type cruzipain, derived from Trypanosoma cruzi Dm28 epimastigotes, was obtained from Dr. Julio Scharfstein (Instituto de Biofisica Carlos Chagas Filho, Universidade Federal do Rio de Janeiro, Rio de Janeiro, Brazil). Activity assays were carried out in 100 mM sodium phosphate, pH 6.75 containing 1 mM EDTA and 10 mM L-cysteine using 2.5 nM enzyme. […] The rate of conversion of substrate to product was derived from the slope of the increase in fluorescence monitored continuously over time.
The apparent inhibition constant (Ki) for each compound was determined on the basis that inhibition was reversible and occurred by a pure-competitive mechanism. The Ki values were calculated, from the dependence of enzyme activity as a function of inhibitor concentration, by direct regression analysis (Prism v 3.02) using Equation 2 (Cornish-Bowden, A., 1995.). [formula]

Wild-type cruzipain, sequence (P25779 whole entry): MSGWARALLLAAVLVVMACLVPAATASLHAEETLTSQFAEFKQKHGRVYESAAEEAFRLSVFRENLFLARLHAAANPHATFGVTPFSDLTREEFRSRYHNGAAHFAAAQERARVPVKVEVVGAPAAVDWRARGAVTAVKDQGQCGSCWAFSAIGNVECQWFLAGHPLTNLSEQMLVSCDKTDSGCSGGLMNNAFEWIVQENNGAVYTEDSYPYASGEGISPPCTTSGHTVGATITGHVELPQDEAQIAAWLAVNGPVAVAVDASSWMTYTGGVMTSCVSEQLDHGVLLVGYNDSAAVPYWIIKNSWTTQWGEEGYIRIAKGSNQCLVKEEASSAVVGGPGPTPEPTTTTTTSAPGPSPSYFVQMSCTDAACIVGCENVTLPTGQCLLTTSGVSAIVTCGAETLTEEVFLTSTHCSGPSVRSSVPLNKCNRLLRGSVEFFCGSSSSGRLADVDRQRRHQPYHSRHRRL

Compound	Ki [µM]
CC(=O)N(C)[C@@H](CC(C)C)C(=O)N1CC(=O)[C@@H]2[C@H]1CCN2C(=O)[C@H](CC(C)C)NC(=O)c1ccc(N(C)C)cc1 [Example 221, (3aR,6aS)-N-((1S)-1-{4-[(2S)-2-(Acetyl-methyl-amino)-4-methyl-pentanoyl]-6-oxo-hexahydro-pyrrolo[3,2-b]pyrrole-1-carbonyl}-3-methyl-butyl)-4-dimethylamino-benzamide]	< 5
CC(C)C[C@H](NC(=O)c1ccc(N(C)C)cc1)C(=O)N1CC[C@@H]2[C@H]1C(=O)CN2C(=O)C1(N)CCC1 [Example 223, (3aR,6aS)-N-{(1S)-1-[4-(1-Amino-cyclobutanecarbonyl)-6-oxo-hexahydro-pyrrolo[3,2-b]pyrrole-1-carbonyl]-3-methyl-butyl}-4-dimethylamino-benzamide]	< 5
CC(C)C[C@H](NC(=O)c1ccc(N(C)C)cc1)C(=O)N1CC[C@@H]2[C@H]1C(=O)CN2C(=O)C1(N)CCCC1 [Example 224]	< 5
CC(C)C[C@H](NC(=O)c1ccc(N(C)C)cc1)C(=O)N1CC[C@@H]2[C@H]1C(=O)CN2C(=O)[C@@H](N)C1CCCCC1 [Example 226, (3aR,6aS)-N-{(1S)-1-[4-((2S)-2-Amino-2-cyclohexyl-acetyl)-6-oxo-hexahydro-pyrrolo[3,2-b]pyrrole-1-carbonyl]-3-methyl-butyl}-4-dimethylamino-benzamide]	< 5
CC(C)C[C@H](NC(=O)c1ccc(N(C)C)cc1)C(=O)N1CC[C@@H]2[C@H]1C(=O)CN2C(=O)CN(C)C [Example 227, (3aR,6aS)-4-Dimethylamino-N-{(1S)-1-[4-(2-dimethylamino-acetyl)-6-oxo-hexahydro-pyrrolo[3,2-b]pyrrole-1-carbonyl]-3-methyl-butyl}-benzamide]	< 5
CC(C)C[C@H](NC(=O)c1ccc(N(C)C)cc1)C(=O)N1CC[C@@H]2[C@H]1C(=O)CN2C(=O)C1CCCO1 (stereo partly drawn) [Example 238, (3aR,6aS)-4-Dimethylamino-N-{(1S)-3-methyl-1-[6-oxo-4-(tetrahydro-furan-2-carbonyl)-hexahydro-pyrrolo[3,2-b]pyrrole-1-carbonyl]-butyl}-benzamide]	< 5
CC(C)C[C@H](NC(=O)c1ccc(N(C)C)cc1)C(=O)N1CC[C@@H]2[C@H]1C(=O)CN2C(=O)CC1CCNCC1 [Example 240]	< 5
CC(C)C[C@H](NC(=O)c1ccc(N(C)C)cc1)C(=O)N1CC[C@@H]2[C@H]1C(=O)CN2C(=O)CN1CCNCC1 [Example 241, (3aR,6aS)-4-Dimethylamino-N-{(1S)-3-methyl-1-[6-oxo-4-(2-piperazin-1-yl-acetyl)-hexahydro-pyrrolo[3,2-b]pyrrole-1-carbonyl]-butyl}-benzamide]	< 5
CC(C)C[C@H](NC(=O)c1ccc(N(C)C)cc1)C(=O)N1CC[C@@H]2[C@H]1C(=O)CN2C(=O)C1CCNCC1 [Example 242, (3aR,6aS)-4-Dimethylamino-N-{(1S)-3-methyl-1-[6-oxo-4-(piperidine-4-carbonyl)-hexahydro-pyrrolo[3,2-b]pyrrole-1-carbonyl]-butyl}-benzamide]	< 5

More lines, now with the values ahead:

Ki [µM]	Compound
< 5	O=C(N[C@@H](CSCc1ccccc1)C(=O)N1CC[C@@H]2[C@H]1C(=O)CN2C(=O)c1ccccc1)c1cccc(Oc2ccccc2)c1 [Example 260, (3aR,6aS)-N-[(1R)-2-(4-Benzoyl-6-oxo-hexahydro-pyrrolo[3,2-b]pyrrol-1-yl)-1-benzylsulfanylmethyl-2-oxo-ethyl]-3-phenoxy-benzamide]
< 5	O=C(N[C@@H](Cc1ccc(O)cc1)C(=O)N1CC[C@@H]2[C@H]1C(=O)CN2C(=O)c1ccccc1)c1cccc2cccnc12 [Example 297, (3aR,6aS)-Quinoline-8-carboxylic acid [(1S)-2-(4-benzoyl-6-oxo-hexahydro-pyrrolo[3,2-b]pyrrole-1-yl)-1-(4-hydroxy-benzyl)-2-oxo-ethyl]-amide]
< 5	O=C(N[C@@H](Cc1ccc(O)cc1)C(=O)N1CC[C@@H]2[C@H]1C(=O)CN2C(=O)c1ccc2ccccc2c1)c1cccc2ccccc12 [Example 302, (3aR,6aS)-Naphthalene-1-carboxylic acid {(1S)-1-(4-hydroxy-benzyl)-2-[4-(naphthalene-2-carbonyl)-6-oxo-hexahydro-pyrrolo[3,2-b]pyrrol-1-yl]-2-oxo-ethyl}-amide]
< 5	CCn1nc(C)cc1C(=O)N[C@@H](Cc1ccc(O)cc1)C(=O)N1CC[C@@H]2[C@H]1C(=O)CN2C(=O)c1ccccc1S(C)(=O)=O [Example 313, (3aR,6aS)-2-Ethyl-5-methyl-2H-pyrazole-3-carboxylic acid {(1S)-1-(4-hydroxy-benzyl)-2-[4-(2-methanesulfonylbenzoyl)-6-oxo-hexahydropyrrolo[3,2-b]pyrrole-1-yl]-2-oxo-ethyl}-amide]
< 5	CN(C)c1ccc(C(=O)N[C@@H](Cc2ccc(O)cc2)C(=O)N2CC[C@@H]3[C@H]2C(=O)CN3C(=O)c2cccc([N+](=O)[O-])c2)cc1 [Example 321, (3aR,6aS)-4-Dimethylamino-N-{(1S)-1-(4-hydroxy-benzyl)-2-[4-(3-nitro-benzoyl)-6-oxo-hexahydro-pyrrolo[3,2-b]pyrrole-1-yl]-2-oxo-ethyl}-benzamide]
< 5	CN(C)c1ccc(C(=O)N[C@@H](Cc2ccc(O)cc2)C(=O)N2CC[C@@H]3[C@H]2C(=O)CN3C(=O)c2cccc(F)c2)cc1 [Example 322]
< 5	O=C(N[C@@H](Cc1ccc(O)cc1)C(=O)N1CC[C@@H]2[C@H]1C(=O)CN2C(=O)c1cccs1)c1cccc(Br)c1 [Example 324, (3aR,6aS)-3-Bromo-N-{(1S)-1-(4-hydroxy-benzyl)-2-oxo-2-[6-oxo-4-(thiophene-2-carbonyl)-hexahydro-pyrrolo[3,2-b]pyrrol-1-yl]-ethyl}-benzamide]
< 5	Cc1ccc(C(=O)N2CC(=O)[C@@H]3[C@H]2CCN3C(=O)[C@H](Cc2ccc(O)cc2)NC(=O)c2cccc(Br)c2)cc1 [Example 328, (3aR,6aS)-3-Bromo-N-{(1S)-1-(4-hydroxy-benzyl)-2-[4-(4-methyl-benzoyl)-6-oxo-hexahydro-pyrrolo[3,2-b]pyrrole-1-yl]-2-oxo-ethyl}-benzamide]
< 5	O=C(N[C@@H](Cc1ccc(O)cc1)C(=O)N1CC[C@@H]2[C@H]1C(=O)CN2C(=O)c1ccccc1)c1ccccc1 [Example 333, (3aR,6aS)-N-[(1S)-2-(4-Benzoyl-6-oxo-hexahydro-pyrrolo[3,2-b]pyrrol-1-yl)-1-(4-hydroxy-benzyl)-2-oxo-ethyl]-benzamide]
< 5	O=C(N[C@@H](Cc1ccc(O)cc1)C(=O)N1CC[C@@H]2[C@H]1C(=O)CN2C(=O)c1ccccc1)c1cccnc1 [Example 336, (3aR,6aS)-N-[(1S)-2-(4-Benzoyl-6-oxo-hexahydro-pyrrolo[3,2-b]pyrrol-1-yl)-1-(4-hydroxy-benzyl)-2-oxo-ethyl]-nicotinamide]
< 5	Cc1ccc(C(=O)N[C@@H](Cc2ccc(O)cc2)C(=O)N2CC[C@@H]3[C@H]2C(=O)CN3C(=O)c2ccccc2)cc1Br [Example 337, (3aR,6aS)-N-[(1S)-2-(4-Benzoyl-6-oxo-hexahydro-pyrrolo[3,2-b]pyrrol-1-yl)-1-(4-hydroxy-benzyl)-2-oxo-ethyl)-3-bromo-4-methyl-benzamide]
< 5	COc1cccc(C(=O)N[C@@H](Cc2ccc(O)cc2)C(=O)N2CC[C@@H]3[C@H]2C(=O)CN3C(=O)c2ccccc2)c1 [Example 338, (3aR,6aS)-N-[(1S)-2-(4-Benzoyl-6-oxo-hexahydro-pyrrolo[3,2-b]pyrrol-1-yl)-1-(4-hydroxy-benzyl)-2-oxo-ethyl]-3-methoxy-benzamide]
< 5	O=C(N[C@@H](Cc1ccc(O)cc1)C(=O)N1CC[C@@H]2[C@H]1C(=O)CN2C(=O)c1ccccc1)c1cccc(OC(F)(F)F)c1 [Example 339, (3aR,6aS)-N-[(1S)-2-(4-Benzoyl-6-oxo-hexahydro-pyrrolo[3,2-b]pyrrol-1-yl)-1-(4-hydroxy-benzyl)-2-oxo-ethyl]-3-trifluoromethoxy-benzamide]
